Measured values: patent US8372967B2, “Compounds and methods for modulating expression of GCCR” (Isis Pharmaceuticals, Inc., priority 2006, dated 2013)
Strand notation (5' to 3'): a small letter for the sugar, then the base; units joined by * are phosphorothioate-linked, units joined directly phosphodiester-linked; [ ] holds rarer units or linkages, { } end groups; capitals alone tell only the bases. [PAM-N] = nucleoside carrying a 2'-(butylacetamido)-palmitamide group (palmitic acid C16 conjugate) (N: the base); e = 2'-O-(2-methoxyethyl) (MOE); l = locked nucleic acid (LNA); [5mC] = 5-methylcytosine; d = 2'-deoxy (DNA)

How the values were obtained:
GCGR mRNA = assay: Antisense inhibition of GCGR in HepG2 cells (Table 79); type: cell-based, human; conditions: for percent reduction in GCGR mRNA: HepG2 cells, relative to untreated control cells
Procedure: Short antisense compounds targeted to a GCGR nucleic acid were tested for their effects on GCGR mRNA in vitro.
(§1) Cultured HepG2 cells at a density of 10000 cells per well in a 96-well plate were treated as described herein with 25, 50, 100 or 200 nM of antisense oligonucleotide. After the treatment period, RNA was isolated from the cells and GCGR mRNA levels were measured by quantitative real-time PCR, as described herein. GCGR mRNA levels were adjusted according to total RNA content as measured by RIBOGREEN®. Results are presented as percent reduction in GCGR mRNA, relative to untreated control cells.

monkey GCGR mRNA = assay: Antisense inhibition of GCGR in primary monkey hepatocytes (Table 80); type: cell-based; conditions: relative to untreated control cells
Procedure: Additional short antisense compounds targeted to a GCGR nucleic acid were tested for their effects on monkey GCGR mRNA in vitro. Cultured primary monkey hepatocytes were treated as described herein with 25, 50, 100 or 200 nM of short antisense compound. After the treatment period, RNA was isolated from the cells and GCGR mRNA levels were measured by quantitative real-time PCR, as described herein. GCGR mRNA levels were adjusted according to total RNA content as measured by RIBOGREEN®. Results are presented in Table 80 as percent reduction in GCGR mRNA, relative to untreated control cells.

[1] = HbA1c status in ZDF rat (Table 72); type: in vivo; conditions: for Percentage HbA1c: ZDF rat, 400 nM/kg i.p. once a week
Procedure: (§2) ISIS 388625, 388626 and control oligo ISIS 388628 were analyzed for their effect on ZDF rat plasma glucose levels and HbA1c. The leptin receptor deficient Zucker diabetic fatty (ZDF) rat is a useful model for the investigation of type 2 diabetes. Diabetes develops spontaneously in these male rats at ages 8-10 weeks, and is associated with hyperphagia, polyuria, polydipsia, and impaired weight gain, symptoms which parallel the clinical symptoms of diabetes (Phillips M S, et al., 1996, Nat Genet. 13, 18-19). Six week old ZDF rats were injected intraperitoneally with short antisense compound at a dose of 400 nM/kg once a week for twelve weeks. Data are illustrated in Tables 71 and 72.

[2] = Plasma glucose in ZDF rat (Table 71); type: in vivo
Procedure: as §2

ApoB mRNA [3] = assay: ApoB mRNA in liver and estimated ED50, compounds comprising palmitic acid conjugates (Table 95); type: in vivo, mouse; conditions: ApoB mRNA in liver, Balb/c mice, relative to saline
Procedure: (§3) 0.4, and 0.16 umol/kg. Each dose group consisted of four animals. A 5-10-5 MOE gapmer was used for a control treatment. Mice were sacrificed approximately 48 hours following the final dose. Liver tissue was collected for RNA isolation, and blood was collected for serum chemistry analyses. ApoB mRNA levels were measured by real-time PCR as described herein. ApoB mRNA levels were normalized to RNA levels as determined by RIBOGREEN, and are presented in Table 95 as percent inhibition relative to ApoB mRNA levels in saline-treated control animals.
At the 2.5 umol/kg dose, ApoB inhibition by the short antisense compounds was greater than observed with a 5-10-5 MOE gapmer at an equivalent dose. […] Triglycerides were reduced at the 2.5 and […] doses of ISIS 387462 and ISIS 391872.

PTP1B mRNA [4] = assay: Dose response for human PTP1B in HuVEC cells, PPS 198 and PPS 3000 (Tables 86, 87); type: cell-based
Procedure: Human vascular endothelial (HuVEC) cells were plated at a density of 5000 cells per well and treated as described herein with nM concentrations of short antisense compound as indicated in Table 86. After the treatment period, RNA was isolated from the cells and PTP1B mRNA levels were measured by quantitative real-time PCR, as described herein. PTP1B mRNA levels were adjusted according to total RNA content as measured by RIBOGREEN®. Two different human PTP1B primer probe sets were used to measure mRNA levels. Results with Primer Probe Set (PPS) 198 are shown in Table 86, and results with Primer Probe Set (PPS) 3000 are shown in Table 87. Results are presented as percent inhibition of PTP1B mRNA expression relative to untreated control cells.

PTP1B mRNA [5] = assay: Antisense inhibition of human PTP1B in HepG2 cells, 25 nM (Table 85); type: cell-based
Procedure: as §1, with “Short antisense compounds targeted to a PTP1B nucleic acid were tested for their effects on PTP1B mRNA in vitro. Cultured” for “Cultured”, “treated” for “treated as described herein”, “25” for “25, 50, 100 or 200”, “PTP1B” for “GCGR”, “inhibition (% Ihib) of PTP1B,” for “reduction in GCGR mRNA,”

PTP1B mRNA [6] = assay: Antisense inhibition of human PTP1B in HuVEC cells, 3 nM (Table 84); type: cell-based
Procedure: Short antisense compounds targeted to a PTP1B nucleic acid were tested for their effects on PTP1B mRNA in vitro. Cultured HuVEC cells at a density of 5000 cells per well in a 96-well plate were treated as described herein with 3 nM of short antisense compound. After the treatment period, RNA was isolated from the cells and PTP1B mRNA levels were measured by quantitative real-time PCR, as described herein. PTP1B mRNA levels were adjusted according to total RNA content as measured by RIBOGREEN®. Results are presented as percent inhibition of PTP1B (% Inhib), relative to untreated control cells.

mouse SGLT2 mRNA = assay: Mouse SGLT2 mRNA in kidney, additional 1-10-1 and 2-8-2 MOE gapmers (Table 68); type: in vivo; conditions: Balb/c mouse kidney
Procedure: 1-10-1 and 2-8-2 MOE gapmer short antisense compounds were designed to target different regions of the mouse SGLT2 RNA but have complementarity across species. […] All cytidine residues are 5-methylcytidines.
The short antisense compounds were analyzed for their effect on mouse SGLT2 mRNA levels in vivo. Data was taken from three experiments in which male 6-week old Balb/c mice were dosed twice per week for three weeks with 0.5, 0.1, or 0.02 umol/kg of either a 1-10-1 or 2-8-2 MOE gapmer given by intraperitoneal injection. Mice were sacrificed 48 hours following last administration and evaluated for SGLT2 levels in kidney. Target levels were determined by RT, real-time PCR as described by other examples herein. PCR results were normalized to an internal ISIS control.

ApoB mRNA [7] = assay: ApoB mRNA in liver and ED50, single dose of BNA short antisense compounds (Table 92); type: in vivo, mouse; conditions: ApoB mRNA in liver, single i.p. injection
Procedure: as §3, with “The short antisense compounds tested were ISIS 387462” for “0.4,”, “ISIS 398296.” for “0.16 umol/kg.”, “92” for “95”
At the 8 umol/kg dose, ApoB inhibition by the short antisense compounds was greater than observed with a 5-10-5 MOE gapmer at an equivalent dose. […] Triglycerides were reduced at the highest dose.

[8] = single i.p. injection 0.16 umol/kg
[9] = single i.p. injection 0.4 umol/kg
[10] = single i.p. injection 1.0 umol/kg
[11] = ZDF rats, 400 nM/kg i.p. once a week for twelve weeks, compared to PBS and control

Question: With “327161 (antisense eA*eG*e[5mC]*dT*dG*d[5mC]*dT*dG*dT*dA*d[5mC]*eA*eT*e[5mC]) [compound 327161]” as the substance, how does the “percent reduction in GCGR mRNA” value (GCGR mRNA; 25 nM) read?
Answer: −36%

Question: And the “percent reduction in GCGR mRNA” value (GCGR mRNA; 50 nM)?
Answer: −30%

Question: And the “percent reduction in GCGR mRNA” value (GCGR mRNA; 100 nM)?
Answer: −33%

Question: And the “percent reduction in GCGR mRNA” value (GCGR mRNA; 200 nM)?
Answer: −64%

Question: And the “percent reduction in GCGR mRNA” value (monkey GCGR mRNA; 25 nM)?
Answer: −19%

Question: And the “percent reduction in GCGR mRNA” value (monkey GCGR mRNA; 50 nM)?
Answer: −33%

Question: What about the “percent reduction in GCGR mRNA” value (monkey GCGR mRNA; 100 nM) of the same substance?
Answer: −55%

Question: And the “percent reduction in GCGR mRNA” value (monkey GCGR mRNA; 200 nM)?
Answer: −54%

Question: What does the source list for “388626 (eG*eG*d[5mC]*dA*dT*dG*dA*dG*d[5mC]*dT*eT*e[5mC]) [compound 388626]”?
Answer: Percentage HbA1c ([1]; Day 40): 6.6%; Percentage HbA1c ([1]; Day 55): 5.9%; Percentage HbA1c ([1]; Day 68): 4.0%; Plasma glucose levels ([2]; Day 10, ZDF rat, 400 nM/kg i.p. once a week): 434.7 mg/dL; Plasma glucose levels ([2]; Day 40, ZDF rat, 400 nM/kg i.p. once a week): 300.5 mg/dL; Plasma glucose levels ([2]; Day 55, ZDF rat, 400 nM/kg i.p. once a week): 219.8 mg/dL; Plasma glucose levels ([2]; Day 66, ZDF rat, 400 nM/kg i.p. once a week): 379.8 mg/dL

Question: Which “% Inhib” value (ApoB mRNA [3]; [8]) does the source give for “391871 ([PAM-G]*eG*dT*dA*dC*dA*dT*dG*dG*dA*dA*dG*eT*e[5mC]) [compound 391871]” here?
Answer: 0%

Question: What about the “% Inhib” value (ApoB mRNA [3]; [9]) of the same substance?
Answer: 5%

Question: And the “% Inhib” value (ApoB mRNA [3]; [10])?
Answer: 18%

Question: With “391872 ([PAM-G]*lG*dT*dA*dC*dA*dT*dG*dG*dA*dA*dG*lT*l[5mC]) [compound 391872]” as the substance, how does the “% Inhib” value (ApoB mRNA [3]; [8]) read?
Answer: 18%

Question: And the “% Inhib” value (ApoB mRNA [3]; [9])?
Answer: 50%

Question: What about the “% Inhib” value (ApoB mRNA [3]; [10]) of the same substance?
Answer: 92%

Question: What does the source list for “399301 (GTGTGCACACAGCT; all C 5-methyl, all phosphorothioate, sugars by position not given here; further chemistry not fully specified) [compound 399301]”?
Answer: % Inhibition (PTP1B mRNA [4]; PPS 198, 1.11 nM): 8%; % Inhibition (PTP1B mRNA [4]; PPS 198, 3.33 nM): 63%; % Inhibition (PTP1B mRNA [4]; PPS 198, 10.0 nM): 91%; % Inhibition (PTP1B mRNA [4]; PPS 198, 30.0 nM): 97%; % Inhibition (PTP1B mRNA [4]; PPS 3000, 1.11 nM): 16%; % Inhibition (PTP1B mRNA [4]; PPS 3000, 3.33 nM): 65%; % Inhibition (PTP1B mRNA [4]; PPS 3000, 10.0 nM): 93%; % Inhibition (PTP1B mRNA [4]; PPS 3000, 30.0 nM): 99%; % Inhib (PTP1B mRNA [5]): 43%; % Inhib (PTP1B mRNA [6]): 55%

Question: With “404137 (antisense e[5mC]*eA*dG*dT*dG*dT*dG*d[5mC]*dA*d[5mC]*dA*d[5mC]*eA*eG) [compound 404137]” as the substance, how does the “% Inhib” value (PTP1B mRNA [5]) read?
Answer: 71%

Question: And the “% Inhib” value (PTP1B mRNA [6])?
Answer: 76%

Question: What does the source list for “404138 (antisense e[5mC]*eT*d[5mC]*dA*dG*dT*dG*dT*dG*d[5mC]*dA*d[5mC]*eA*e[5mC]) [compound 404138]”?
Answer: % Inhib (PTP1B mRNA [5]): 86%; % Inhib (PTP1B mRNA [6]): 76%

Question: With “404139 (eG*eT*dG*d[5mC]*dA*d[5mC]*dA*d[5mC]*dA*dG*d[5mC]*dT*eG*eA) [compound 404139]” as the substance, how does the “% Inhib” value (PTP1B mRNA [5]) read?
Answer: 45%

Question: And the “% Inhib” value (PTP1B mRNA [6])?
Answer: 80%

Question: Which “% Inhib” value (PTP1B mRNA [5]) does the source give for “404140 (eG*e[5mC]*dA*d[5mC]*dA*d[5mC]*dA*dG*d[5mC]*dT*dG*dA*eG*eG) [compound 404140]” here?
Answer: 93%

Question: And the “% Inhib” value (PTP1B mRNA [6])?
Answer: 73%

Question: For “ISIS 327161: 3-10-3 MOE gapmer targeted to GCGR (eA*eG*e[5mC]*dT*dG*d[5mC]*dT*dG*dT*dA*d[5mC]*eA*eT*e[5mC])”, which “GCGR mRNA” value (GCGR mRNA; HepG2, 25, 50, 100 or 200 nM) is on record?
Answer: reduced GCGR mRNA in a dose-dependent manner

Question: Which HbA1C [1, 11] does the source give for “ISIS 388626: GGCATGAGCTTC 2-8-2 MOE, SGLT2 (eG*eG*d[5mC]*dA*dT*dG*dA*dG*d[5mC]*dT*eT*e[5mC])” here?
Answer: significantly reduced

Question: What about the Plasma glucose levels [2, 11] of the same substance?
Answer: significantly reduced

Question: And the “% change in SGLT2 expression relative to saline” value (mouse SGLT2 mRNA; 0.02 umol/kg i.p. twice per week for three weeks)?
Answer: −45%

Question: What about the “% change in SGLT2 expression relative to saline” value (mouse SGLT2 mRNA; 0.1 umol/kg i.p. twice per week for three weeks) of the same substance?
Answer: −60%

Question: And the “% change in SGLT2 expression relative to saline” value (mouse SGLT2 mRNA; 0.5 umol/kg i.p. twice per week for three weeks)?
Answer: −80%

Question: Which ED50 (ApoB mRNA [7]) does the source give for “ISIS 398296: GGTACATGGAAGTC 2-10-2 (6′S)-6′-methyl-Methyleneoxy BNA, Unmodified Cytosines, ApoB (2-10-2 6'-(S)-methyl BNA gapmer, chemistry not fully specified)” here?
Answer: 8.7 mg/kg
